{
  "source": "patent US20070196866A1",
  "about": "“Modulators of ion channel trpa1” (IRM LLC, priority 2004, published 2007)",
  "assay_type_in_all_cases": "cell-based",
  "key": {"adult rat DRG neurons": {"tested_on": "adult rat DRG neurons", "assay": "Calcium imaging of cultured adult rat DRG neurons", "excerpt": "To further test this hypothesis, and to find out if the pungent compounds described above activate TRPA1 specifically, we performed calcium imaging of adult rat DRG neurons in response to cold, menthol, cinnamaldehyde, allyl isothiocyanate, and bradykinin. […] To a large extent, cinnamaldehyde and menthol activated mutually exclusive populations of cold-responsive neurons, as our model would predict. Allyl isothiocyanate appeared less specific as it activated 63% of the cold-responsive population (including a large overlap with menthol) and 12% of the cold-insensitive population. We have used 1.6 times the EC50 values of cinnamaldehyde and allyl isothiocyanate to enable us to directly compare DRG response profiles to these compounds. […] There were no significant differences in profiles of cinnamaldehyde and allyl isothiocyanate between cultures in the presence of 1 and 100 ng/ml of NGF.\nIn addition to the pungent sensory compounds, we have shown that BK can activate TRPA1.\nTo test if garlic extracts and allicin specifically activate TRPA1 in native neurons, we performed calcium imaging of adult rat DRG neurons. […] Addition of allicin or garlic extract to cultured rat DRG neurons activated a specific population of neurons."}, "TRPA1 [1]": {"biological_target": "T1, TRPA1 (Homo sapiens, UniProt O75762)", "assay": "FLIPR dose response, hTRPA1", "design": "expressed in transfected cells"}, "TRPV1 [2]": {"tested_on": "TRPV1", "assay": "Calcium imaging of TRPV1-expressing CHO cells"}, "mouse TRPA1": {"biological_target": "T2, mouse TRPA1 (Mus musculus, UniProt Q8BLA8)", "T2 construct": "expressed in transfected cells; host or cells: CHO cells", "T2 sequence (Q8BLA8 whole entry)": "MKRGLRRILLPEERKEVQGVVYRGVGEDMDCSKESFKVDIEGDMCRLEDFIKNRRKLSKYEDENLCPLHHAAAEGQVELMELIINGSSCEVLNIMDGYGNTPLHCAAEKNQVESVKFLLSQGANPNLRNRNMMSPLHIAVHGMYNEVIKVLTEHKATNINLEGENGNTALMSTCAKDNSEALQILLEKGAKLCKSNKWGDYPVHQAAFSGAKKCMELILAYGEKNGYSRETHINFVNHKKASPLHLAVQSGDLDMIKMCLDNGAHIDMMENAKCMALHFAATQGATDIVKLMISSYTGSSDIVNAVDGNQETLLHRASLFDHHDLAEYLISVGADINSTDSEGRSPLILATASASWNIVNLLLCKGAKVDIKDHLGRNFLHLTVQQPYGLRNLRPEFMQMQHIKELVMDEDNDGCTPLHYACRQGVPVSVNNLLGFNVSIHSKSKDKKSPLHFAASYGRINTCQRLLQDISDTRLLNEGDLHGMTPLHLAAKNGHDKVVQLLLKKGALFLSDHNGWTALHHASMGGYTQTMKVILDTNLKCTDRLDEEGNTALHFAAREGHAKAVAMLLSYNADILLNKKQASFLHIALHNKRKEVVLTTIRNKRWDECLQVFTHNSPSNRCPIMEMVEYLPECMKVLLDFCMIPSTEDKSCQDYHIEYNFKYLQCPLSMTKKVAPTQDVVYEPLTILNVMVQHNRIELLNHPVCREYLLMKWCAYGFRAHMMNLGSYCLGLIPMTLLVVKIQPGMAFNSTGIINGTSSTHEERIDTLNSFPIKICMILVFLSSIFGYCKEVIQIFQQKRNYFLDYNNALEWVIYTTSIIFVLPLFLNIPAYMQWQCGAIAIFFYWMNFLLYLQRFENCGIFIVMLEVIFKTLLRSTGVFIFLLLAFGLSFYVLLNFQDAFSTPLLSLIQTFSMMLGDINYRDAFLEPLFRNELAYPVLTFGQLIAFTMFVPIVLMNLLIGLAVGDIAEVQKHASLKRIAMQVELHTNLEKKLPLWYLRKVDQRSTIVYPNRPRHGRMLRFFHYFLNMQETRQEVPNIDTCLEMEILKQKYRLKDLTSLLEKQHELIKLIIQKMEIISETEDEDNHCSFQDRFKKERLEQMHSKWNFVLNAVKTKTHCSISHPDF", "assay": "FLIPR intracellular calcium assay, mouse TRPA1-expressing CHO cells"}, "TRPA1 [3]": {"biological_target": "T1, TRPA1", "assay": "Electrophysiological recording of TRPA1-expressing oocytes", "design": "expressed in transfected cells; host or cells: oocytes", "settings": "1 μM"}, "mTRPA1": {"biological_target": "T3, mTRPA1 (Mus musculus, UniProt Q8BLA8)", "T3 construct": "expressed in transfected cells; host or cells: CHO cells", "T3 sequence (Q8BLA8 whole entry)": "as above", "assay": "Ratiometric calcium imaging of CHO cells expressing mTRPA1"}, "TRPV1 [4]": {"tested_on": "TRPV1", "assay": "FLIPR calcium assay, TRPV1-expressing CHO cells", "settings": "2 mM", "excerpt": "We then tested these compounds against TRPM8 and TRPV1."}},
  "data": [
    {"smiles": "C=CCS[S+]([O-])CC=C", "note": "(centres unmarked) [allicin, diallyl disulfide oxide]", "values": [
      {"measurement": "response of capsaicin-insensitive neurons", "setting": "adult rat DRG neurons", "value": "never responded"},
      {"measurement": "DRG neuron population activated at high concentrations", "setting": "adult rat DRG neurons; dilution 1:50 for garlic, 100 μM allicin", "value": "activated the majority of capsaicin-sensitive DRG neurons"},
      {"measurement": "DRG neuron population activated at low concentrations", "setting": "adult rat DRG neurons; dilution 1:500 for garlic, 10 μM allicin", "value": "activated only the cinnamaldehyde-sensitive neurons"},
      {"measurement": "EC50", "setting": "TRPA1 [1]", "value": 1910, "unit": "nM"},
      {"measurement": "calcium response of TRPV1-expressing CHO cells", "setting": "TRPV1 [2]", "value": "immediate and strong calcium response"},
      {"measurement": "EC50", "setting": "mouse TRPA1; FLIPR, mTRPA1, read-out: concentration for half maximal activation (EC50)", "value": 1320, "unit": "nM"},
      {"measurement": "activation of TRPA1-expressing oocytes", "setting": "TRPA1 [3]", "value": "able to activate"},
      {"measurement": "calcium response of TRPA1-expressing CHO cells", "setting": "mTRPA1", "value": "immediate and strong calcium response"}
    ]},
    {"smiles": "COC(=O)c1ccccc1O", "note": "[Methyl salicylate]", "values": [
      {"measurement": "specificity to mTRPA1 when tested against TRPM8 and TRPV1", "setting": "mouse TRPA1; 600 μM", "value": "specific to mTRPA1"},
      {"measurement": "increase in intracellular calcium upon application", "setting": "mouse TRPA1; FLIPR, mTRPA1 CHO cells", "value": "sharp increase in intracellular calcium"},
      {"measurement": "activation of TRPV1-expressing cells, relative to TRPV1 response from saturating amounts of capsaicin", "setting": "TRPV1 [4]", "value": 25, "unit": "%"}
    ]}
  ]
}
